Laboratory results from patent US20140271922A1, “PIRENZEPINE AS AN AGENT IN CANCER TREATMENT” (PROTEOSYS AG, priority 2009, published 2014).
Entries after “also recorded” stand apart in the source; their conditions may differ.

Test system: Human H460 Large Cell Lung Cancer (NCI-H460 human NSCLC cells)
Assay: Tumor growth in the H460 lung tumor xenograft model
Type: in vivo, Female NMRI nude mice
Conditions: for effect on tumor growth, single agent (in words): PSY 310 alone, 50 mg/kg/d po, 50 mg/kg/day; for potentiation of the cytostatic effects of cisplatin (in words): PSY 310 po co-administered with cisplatin ip
Procedure: PSY 310 was tested with 2 different dosing schedules of cisplatin. • Animals: Female NMRI nude mice (Janvier, Le Genest St Isle, France), age: 6-7 weeks at start of experiment Janvier, Le Genest St Isle, France; age 5-6 weeks). 70 animals were inoculated at the beginning of the experiment. • Cells: Human H460 Large Cell Lung Cancer (ATCC: HTB-177); • 3×10^6 cells from cell culture was inoculated subcutaneously per mouse in a volume of 200 μl on day 0. • Application route: subcutaneously; • 1 tumor/mouse • Tumor volume at • start of therapy: 62.5-100 mm^3 • (formula: a×b^2×0.5; a: length, b width) • Test compounds: Cisplatin, • PSY 310 (Pirenzepine) • Dosing: Cisplatin • 1) high dose: 1×/week, 2 weeks (days 7, 14) • dose: 2.5 mg/kg/day; route: ip • 2) low dose 5×/week, 2 weeks (days 7-11+14-18) • dose: 0.15 mg/kg/day; route: ip • PSY 310 • 1×/day for 12 days (days 7-19) • dose: 50 and 20 mg/kg/day; route: po • Vehicle/solvent: Cisplatin:water for injection • PSY 310: PBS, oral gavage • Application volume: 10 ml/kg • Criteria for study termination: Animal weight loss >20% • Tumor >10% body weight or ulceration of tumors • Parameters: […] [table] [table] NCI-H460 human NSCLC cells were implanted in the flanks of immunodeficient mice and growth of the resultant solid tumors was recorded. Mice were assigned to seven treatment groups as indicated above. Tumor dimensions (and animal body weights) were measured on days 10, 14, 17, and 21 after inoculation, and tumor volumes were calculated. As tumor growth was close to exponential evaluations were performed on the common logarithms of tumor volumes in order to render the data suitable for evaluation by a linear model. […] Alternatively, the ratios log(volume)/log(initial volume) were employed, yielding very similar results. Tumors with extremely small initial volumes (<20 μl) in which volume measurements are expected to be rather imprecise were omitted from the evaluations. Comparisons were carried out in the following way: • The slopes of log(volume) over time (i.e. the exponent of the approximately exponential volume growth) were determined for each animal. The ratios of the exponents averaged over the respective groups are given as a measure of the magnitude of the growth retarding effect of the current treatment. • Multivariate variance analyses using the day of measurement and Cisplatin/PSY 310 treatment as model effects were performed.

Row | SMILES | exponent ratio (ratio of group-averaged slopes of log(tumor volume) over time) (Cisplatin high (2.5 mg/kg/day ip) versus Cisplatin low (0.15 mg/kg/day ip), ANOVA p = 0.91) | exponent ratio (ratio of group-averaged slopes of log(tumor volume) over time) (Cisplatin high (2.5 mg/kg/day ip, 1x/week, 2 weeks) versus Control, ANOVA p = 0.014) | exponent ratio (ratio of group-averaged slopes of log(tumor volume) over time) (Cisplatin low (0.15 mg/kg/day ip, 5x/week, 2 weeks) versus Control, ANOVA p = 0.077) | effect on tumor growth of cisplatin alone (in words) (cisplatin ip, low and high dose regimens) | exponent ratio (ratio of group-averaged slopes of log(tumor volume) over time) (PSY 310 50 mg/kg/day po alone (1x/day, 12 days) versus Cisplatin high, ANOVA p = 0.016) | exponent ratio (ratio of group-averaged slopes of log(tumor volume) over time) (PSY 310 50 mg/kg/day po alone (1x/day, 12 days) versus Control, ANOVA p = 0.0003) | effect on tumor growth, single agent (in words) | effect on tumor growth, single agent (in words) (listed as Pirenzepine) | potentiation of the cytostatic effects of cisplatin (in words) | potentiation of the cytostatic effects of cisplatin (in words) (listed as Pirenzepine)
1 | N.N.[Cl][Pt][Cl] [Cisplatin] | 0.96 | 0.81 | 0.85 | moderate effects | – | – | – | – | – | –
2 | CN1CCN(CC(=O)N2c3ccccc3C(=O)Nc3cccnc32)CC1 [PSY 310] | – | – | – | – | 0.74 | 0.61 | even more effective than cisplatin-low dose and cisplatin-high dose regimens; also recorded: single agent cytostatic properties; also recorded: major effect | significant anti-cancer activity by itself | potentiating the cytostatic effects of cisplatin | significant potentiating anti-cancer activity
